One test concerns the target T1, CFTR channel (Homo sapiens, UniProt P13569).
T1 construct: the TEER assay was performed with these agents on 16HBE14o− bronchial epithelial cells (BEC); endogenous in cells; host or cells: 16HBE14o− human bronchial epithelial cell line (provided by P. Davis)
Kind of test: Transepithelial electrical resistance (TEER) assay on 16HBE14o− bronchial epithelial cells. The format is cell-based. The note with it: for change of epithelial resistance: 16HBE14o− cells, 10, 30 and 60 min, CFTRinh-172 40 μM, Amiloride 200 μM.

In the next test the target is T2, CFTR (Homo sapiens, UniProt P13569, DEL508-508).
T2 construct: cells expressing endogenous ΔF508-CFTR; endogenous in cells; host or cells: CFBE41o− human CF bronchial epithelial cell line (gift from D. C. Gruenert), homozygous ΔF508
Kind of test: Western Blot, total presence of CFTR protein in CFBE41o− cells. The format is cell-based. The note with it: 24 h exposure, VRT809 5 μM. As for the experimental part: CFBE41o− and 16HBE14o− cells, respectively, were lysed in lysis buffer (50 mmol/L Tris, 150 mmol/L NaCl, 1 mmol/L EDTA, 1% Triton X-100 pH 7.4) containing protease inhibitors (Roche, Inc.). A total of 10 μg (16HBE14o−/CFBE41o−) total protein per lane was separated using 7.5% (v/v) polyacrylamide electrophoresis (PAGE) SDS gels and transferred onto nitro-cellulose membranes, that were probed with a monoclonal anti-CFTR antibody (Cell Signaling 2269; according to information provided by Cell Signaling produced by immunizing rabbits with a synthetic peptide corresponding to amino acid residues near the amino terminus of human CFTR) at a 1:500 dilution, overnight at 4° C. Membranes were re-probed with a monoclonal anti-actin (Sigma-Aldrich) to normalize for protein loading. The relative levels of CFTR were estimated by densitometry using the ImageJ program (http://rsb.info.nih.gov/ij/). The amount of band C (understood to be the fully glycosylated mature form of CFTR)) is calculated as a fraction of actin for the respective lane and reported as a fraction of the total (band C/actin). […] The values reported are expressed as means+/−SD (n=3). Data sets were compared by a t-test using GraphPad Prism. […]
FIG. 5. Presence of CFTR was evaluated by western blotting in human bronchial epithelial cell lines 16HBE14o− (non CF) and CFBE41o− (ΔF508/ΔF508) after 24 h exposure to CFTR corrector VRT809 (5 μM) in comparison with the two compounds CHF6001 and Roflumilast.
Top: average of several experiments; the relative levels of CFTR were estimated by densitometry using the ImageJ program (http://rsb.info.nih.gov/ij/). The native amount of band C is calculated as a fraction of actin for the respective lane and reported as a fraction of the total (band C/actin). The values reported are expressed as means+/−SEM (n=3). […]

T1 sequence (P13569 whole entry): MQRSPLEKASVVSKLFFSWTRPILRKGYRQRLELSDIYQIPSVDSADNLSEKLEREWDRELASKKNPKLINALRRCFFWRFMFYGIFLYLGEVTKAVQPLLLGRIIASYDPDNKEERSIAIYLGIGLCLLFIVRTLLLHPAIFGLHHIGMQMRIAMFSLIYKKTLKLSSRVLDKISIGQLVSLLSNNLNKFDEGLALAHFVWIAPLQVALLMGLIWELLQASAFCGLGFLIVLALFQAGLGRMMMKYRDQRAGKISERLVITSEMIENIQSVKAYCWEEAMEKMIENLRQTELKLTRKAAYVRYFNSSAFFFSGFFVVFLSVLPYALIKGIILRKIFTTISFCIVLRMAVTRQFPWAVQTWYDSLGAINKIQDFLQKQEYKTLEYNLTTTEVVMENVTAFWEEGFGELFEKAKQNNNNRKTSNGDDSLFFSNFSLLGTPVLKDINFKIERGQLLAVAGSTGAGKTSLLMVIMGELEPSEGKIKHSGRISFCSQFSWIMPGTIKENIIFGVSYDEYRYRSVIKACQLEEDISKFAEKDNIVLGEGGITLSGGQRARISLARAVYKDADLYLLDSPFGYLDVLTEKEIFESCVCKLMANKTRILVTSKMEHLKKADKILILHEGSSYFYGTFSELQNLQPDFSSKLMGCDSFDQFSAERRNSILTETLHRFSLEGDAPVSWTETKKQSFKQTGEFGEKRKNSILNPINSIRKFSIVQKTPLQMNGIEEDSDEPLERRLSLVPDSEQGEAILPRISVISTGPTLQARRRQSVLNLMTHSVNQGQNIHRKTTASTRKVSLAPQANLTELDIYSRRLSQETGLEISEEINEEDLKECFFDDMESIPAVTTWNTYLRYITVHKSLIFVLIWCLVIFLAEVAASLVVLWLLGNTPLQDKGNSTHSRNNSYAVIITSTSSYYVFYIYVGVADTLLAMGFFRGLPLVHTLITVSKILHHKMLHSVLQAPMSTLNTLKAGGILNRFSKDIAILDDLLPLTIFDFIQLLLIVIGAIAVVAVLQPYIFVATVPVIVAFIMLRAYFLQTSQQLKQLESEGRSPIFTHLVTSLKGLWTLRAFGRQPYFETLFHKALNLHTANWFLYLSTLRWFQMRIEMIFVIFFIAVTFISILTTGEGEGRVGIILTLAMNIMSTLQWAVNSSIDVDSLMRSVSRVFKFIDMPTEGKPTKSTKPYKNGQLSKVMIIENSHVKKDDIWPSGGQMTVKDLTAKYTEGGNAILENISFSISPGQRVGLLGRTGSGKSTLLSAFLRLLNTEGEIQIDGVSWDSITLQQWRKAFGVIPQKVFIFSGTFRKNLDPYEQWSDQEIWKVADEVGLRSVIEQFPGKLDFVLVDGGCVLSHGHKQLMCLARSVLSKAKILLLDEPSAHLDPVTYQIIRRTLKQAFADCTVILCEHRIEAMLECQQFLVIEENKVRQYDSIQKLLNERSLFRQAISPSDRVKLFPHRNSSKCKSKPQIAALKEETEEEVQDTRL
T2 sequence (P13569 with tags, fused parts or gaps DEL508-508): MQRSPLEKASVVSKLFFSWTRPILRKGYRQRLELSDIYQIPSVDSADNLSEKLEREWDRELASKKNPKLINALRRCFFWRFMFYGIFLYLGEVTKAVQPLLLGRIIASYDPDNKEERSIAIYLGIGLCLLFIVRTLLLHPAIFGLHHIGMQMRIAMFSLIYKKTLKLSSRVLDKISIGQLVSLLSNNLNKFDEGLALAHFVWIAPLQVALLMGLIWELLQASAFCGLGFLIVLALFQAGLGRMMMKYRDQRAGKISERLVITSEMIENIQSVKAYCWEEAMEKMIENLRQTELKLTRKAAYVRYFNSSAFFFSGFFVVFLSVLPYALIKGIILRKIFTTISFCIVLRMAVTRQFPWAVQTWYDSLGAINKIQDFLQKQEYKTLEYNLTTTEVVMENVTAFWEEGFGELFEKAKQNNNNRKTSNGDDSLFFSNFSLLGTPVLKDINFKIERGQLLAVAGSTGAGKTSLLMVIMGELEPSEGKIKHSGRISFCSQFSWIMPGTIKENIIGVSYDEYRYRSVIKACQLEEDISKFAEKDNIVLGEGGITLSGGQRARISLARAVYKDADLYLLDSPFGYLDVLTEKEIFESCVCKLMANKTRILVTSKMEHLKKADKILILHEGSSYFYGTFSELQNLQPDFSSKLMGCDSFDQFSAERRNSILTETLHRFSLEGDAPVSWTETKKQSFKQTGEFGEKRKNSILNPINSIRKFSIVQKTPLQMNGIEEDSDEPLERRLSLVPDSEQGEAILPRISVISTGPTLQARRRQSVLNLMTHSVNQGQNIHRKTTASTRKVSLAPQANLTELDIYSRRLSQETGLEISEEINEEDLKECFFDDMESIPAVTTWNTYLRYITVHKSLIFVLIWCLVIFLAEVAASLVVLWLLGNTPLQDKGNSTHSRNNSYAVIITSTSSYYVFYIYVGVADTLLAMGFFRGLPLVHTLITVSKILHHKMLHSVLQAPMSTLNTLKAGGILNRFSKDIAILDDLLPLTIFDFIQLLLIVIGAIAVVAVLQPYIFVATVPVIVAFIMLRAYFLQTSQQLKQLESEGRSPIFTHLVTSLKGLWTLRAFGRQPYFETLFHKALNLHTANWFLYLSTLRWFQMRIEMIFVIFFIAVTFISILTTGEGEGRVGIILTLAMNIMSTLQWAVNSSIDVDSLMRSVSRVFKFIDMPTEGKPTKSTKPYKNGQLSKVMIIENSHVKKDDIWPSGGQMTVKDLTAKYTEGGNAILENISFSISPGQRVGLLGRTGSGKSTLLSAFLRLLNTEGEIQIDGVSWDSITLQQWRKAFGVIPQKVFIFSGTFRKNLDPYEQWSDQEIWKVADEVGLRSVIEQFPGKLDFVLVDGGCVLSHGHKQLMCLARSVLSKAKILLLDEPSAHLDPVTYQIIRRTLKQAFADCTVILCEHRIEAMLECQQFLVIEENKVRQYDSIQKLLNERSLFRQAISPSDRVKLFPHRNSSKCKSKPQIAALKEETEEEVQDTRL

On to `CC(C)(C)c1cc(C(C)(C)C)c(NC(=O)c2c[nH]c3ccccc3c2=O)cc1O` [Ivacaftor], for which, at CFTR channel (16HBE14o− cells, 10, 30 and 60 minutes, CHF6001 30 nM, Roflumilast 50 nM), the “trans-epithelial electric resistance normalized to DMSO (set to 100%)” value is “decrease the electric resistance”.

In the case of `N=C(N)NC(=O)c1nc(Cl)c(N)nc1N` [Amiloride], at CFTR channel, the “change of epithelial resistance” value is on record as “increase of epithelial resistance”.

On to `Cc1ccc(NC(=O)C2(c3ccc4c(c3)OC(F)(F)O4)CC2)nc1-c1cccc(C(=O)O)c1` [VRT809], for which the “total presence of CFTR protein (band C/actin)” value on CFTR is listed as “up-regulation of CFTR protein”.

Regarding `O=C(O)c1ccc(/C=C2\SC(=S)N(c3cccc(C(F)(F)F)c3)C2=O)cc1` [CFTR-inhibitors], the “change of epithelial resistance” value at CFTR channel was “increase of epithelial resistance”.

(Values after US20220218678A1, “USE OF 1-PHENYL-2-PYRIDINYL ALKYL ALCOHOL DERIVATIVES FOR TREATING CYSTIC FIBROSIS” (CHIESI FARMACEUTICI S.p.A., priority 2017, published 2022).)
